The values below come from PubChem BioAssay AID1645862 (Buhrlage Lab, Dana-Farber Cancer Institute and Novartis …, 2021).

In the assay the target is Ubiquitin carboxyl-terminal hydrolase 8 (Homo sapiens) (UniProt P40818). The assay is described as follows: Ubiquitin-specific protease 8 inhibitors, concentration-effect, biochemical, validation of initial actives (AID 1645862).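 Note: potency reflects inhibition of USP8 cleavage of a ubiquitin rhodamine substrate.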 Conditions: recombinant USP8 deubiquitinase activity assay.

Activity calls are given as the source filed them. The rule behind the calls is not given here.

Sequence of Ubiquitin carboxyl-terminal hydrolase 8 (Homo sapiens) (P40818 whole entry, looked up): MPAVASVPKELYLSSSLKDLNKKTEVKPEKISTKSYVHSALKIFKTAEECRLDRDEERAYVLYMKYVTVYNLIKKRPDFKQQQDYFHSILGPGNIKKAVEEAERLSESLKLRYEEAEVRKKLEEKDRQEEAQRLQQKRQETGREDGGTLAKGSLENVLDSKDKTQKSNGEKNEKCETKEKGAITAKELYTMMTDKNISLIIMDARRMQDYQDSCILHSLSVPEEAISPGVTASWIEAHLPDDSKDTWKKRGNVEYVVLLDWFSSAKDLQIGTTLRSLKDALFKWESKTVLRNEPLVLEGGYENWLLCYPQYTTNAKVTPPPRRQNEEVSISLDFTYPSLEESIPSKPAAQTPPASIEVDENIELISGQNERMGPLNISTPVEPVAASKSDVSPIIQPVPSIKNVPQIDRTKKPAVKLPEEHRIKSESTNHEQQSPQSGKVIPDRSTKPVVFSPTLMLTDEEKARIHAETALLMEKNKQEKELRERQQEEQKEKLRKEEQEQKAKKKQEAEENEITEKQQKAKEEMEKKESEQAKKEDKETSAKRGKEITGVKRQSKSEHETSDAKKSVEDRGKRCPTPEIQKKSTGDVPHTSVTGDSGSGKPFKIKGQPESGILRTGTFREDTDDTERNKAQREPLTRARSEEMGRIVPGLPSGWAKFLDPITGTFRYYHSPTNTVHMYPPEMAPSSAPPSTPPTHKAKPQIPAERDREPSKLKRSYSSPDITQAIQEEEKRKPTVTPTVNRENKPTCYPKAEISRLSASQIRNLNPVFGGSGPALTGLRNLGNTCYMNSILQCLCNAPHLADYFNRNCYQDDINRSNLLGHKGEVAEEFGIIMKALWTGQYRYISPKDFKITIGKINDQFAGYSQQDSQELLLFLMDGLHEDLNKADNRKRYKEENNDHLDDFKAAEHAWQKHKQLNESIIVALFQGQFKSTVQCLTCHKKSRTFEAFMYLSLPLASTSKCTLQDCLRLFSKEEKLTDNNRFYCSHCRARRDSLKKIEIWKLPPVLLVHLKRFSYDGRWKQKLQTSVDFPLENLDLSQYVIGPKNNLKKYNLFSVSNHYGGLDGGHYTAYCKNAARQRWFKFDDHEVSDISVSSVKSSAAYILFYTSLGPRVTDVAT

`Cc1ccccc1NC(=O)Nc1cccc(-c2nnc(-c3ccccc3)o2)c1`: the IC50 was > 40 µM (inactive).
The figure for `CCc1nnc(-c2ccc3ccn(CC(=O)N4CCN(c5ccccn5)CC4)c3c2)o1` is > 40 µM (inactive).
`CC1CCCN(S(=O)(=O)c2ccc(-n3cnc(C(=O)NC4CC4)c3)nc2)C1` (centres undefined): the IC50 was > 40 µM (inactive).
For `CCC(=O)Nc1nc2cc(NC(=O)Nc3ccccc3Cl)ccc2s1`, the IC50 was > 40 µM (inactive).
As to `O=C(Nc1ccccc1C(F)(F)F)c1cccc(S(=O)(=O)Nc2cc(C(F)(F)F)ccc2Cl)c1`, the IC50 is > 40 µM (inactive).
For `COc1ccc(CNC(=O)Nc2cccc3ccccc23)cc1`, the IC50 was > 40 µM (inactive).
Regarding `COc1ccc(CCNC(=O)Cn2c(=O)c3sccc3n(Cc3cccc([N+](=O)[O-])c3)c2=O)cc1OC`, the IC50 is > 40 µM (inactive).
Consider `Cc1sc(NC(=O)Cn2nnc3ccccc32)nc1-c1ccc2c(c1)CCN2C(=O)c1ccccc1F`, for which the IC50 was > 40 µM (inactive).
For `CC(=O)Nc1cccc(-c2cnc3sc(NC4CCCCC4)nn23)c1`, the IC50 is > 40 µM (inactive).
For `CCOC(=O)c1ccc(NC(=O)Cn2c(=O)n(-c3ccc(CC(=O)NCc4ccco4)cc3)c(=O)c3ccccc32)cc1`, the IC50 is > 40 µM (inactive).
Take `CCn1c(SCC(=O)Nc2ccc(C)c(Cl)c2)nnc1-c1ccc2c(c1)OCCO2`: the IC50 is > 40 µM (inactive).
Consider `COC(=O)c1ccc(NC(=O)/C=C/c2ccc(F)cc2)cc1`, for which the IC50 was > 40 µM (inactive).
Regarding `COC(=O)c1ccccc1NC(=O)Cn1c(=O)n(Cc2ccc(C(=O)NCc3ccco3)cc2)c(=O)c2ccccc21`, the IC50 is > 40 µM (inactive).
The figure for `Cc1ccc2c(c1)c1ncn(Cc3nc(C)no3)c(=O)c1n2CC(=O)NCc1ccccc1` is > 40 µM (inactive).
Consider `Cc1ccc2c(CNCCC3=CCCCC3)c(C(=O)O)n(C)c2c1`, for which the IC50 was > 40 µM (inactive).
For the compound `N#Cc1cccc(NC(=O)COC(=O)c2n[nH]c3ccccc23)c1`, the IC50 is > 40 µM (inactive).
For `O=c1[nH]c(C2CCN(S(=O)(=O)c3ccc(S(=O)(=O)NC4CCCC4)cc3)CC2)nc2c1nnn2Cc1cccc(Cl)c1`, the IC50 is > 40 µM (inactive).
On to `O=C(Cn1c(=O)c2sccc2n(Cc2ccc([N+](=O)[O-])cc2)c1=O)NCCc1ccccc1`, for which the IC50 was > 40 µM (inactive).
For `COCCCNC(=O)c1ccc(Cn2c(=O)c3ccccc3n(CC(=O)Nc3ccc4c(c3)OCCO4)c2=O)cc1`, the IC50 is > 40 µM (inactive).
The figure for `O=C(CNC(=O)c1ccc2nc(-n3cccc3)sc2c1)NCc1cccc(Cl)c1` is > 40 µM (inactive); for `COc1ccc(NC(=O)c2nnc(C(=O)NCCN3CCCCCC3)s2)cc1` it is > 40 µM (inactive); for `COC(=O)c1ccc(Nc2cc(C)nc3cc(C(F)(F)F)ccc23)cc1` it is > 40 µM (inactive).
`O=C(O)CCCCCN1C(=O)CC(c2ccc(Cl)cc2)CC1=O`: the IC50 is 31.8 µM.
As for `COc1ccccc1CNC(=O)C1c2ccccc2C(=O)N1Cc1ccccc1C` (centres undefined), the IC50 is > 40 µM (inactive).
Take `O=C(Nc1cc(F)c2nc(N3CCCC3)ccc2c1)c1ccco1`: the IC50 is > 40 µM (inactive).
The figure for `NC(=O)c1ccccc1NC(=O)COc1ccc2c(c1)oc(=O)c1ccccc12` is 32.6 µM.
As to `Cc1c(C#N)c2ccccc2n1CC(=O)NCc1ccc2c(c1)OCO2`, the IC50 is > 40 µM (inactive).
The figure for `O=C(Nc1ccc(Br)cc1F)c1ccc(S(=O)(=O)N2CCCC2)cc1` is > 40 µM (inactive); for `CCOc1ccc(-c2nc(SCC(=O)Nc3cccc(C)c3)n3[nH]c(=O)cc3n2)cc1` it is > 40 µM (inactive).
In the case of `COc1ccc([C@H]2Oc3cc(OC)cc(O)c3C(=O)[C@@H]2[C@@H]2C(=O)c3c(O)cc(O)cc3O[C@H]2c2ccc(OC)cc2)cc1` it was > 40 µM (inactive); in that of `COc1cc(NC(=O)Cn2c(=O)n(-c3ccc(CC(=O)NCc4ccco4)cc3)c(=O)c3ccccc32)cc(OC)c1`, > 40 µM (inactive).
On to `O=C(/C=C/c1ccc(F)cc1)N1CCc2ccccc2C1`, for which the IC50 was 26 µM.
Consider `Cc1ccc(NC(=O)Cc2nnc3c(-c4nc(C5CC5)no4)cccn23)cc1F`, for which the IC50 was 30.3 µM.
In the case of `COc1ccc(C2NC(=O)NC(C)=C2C(=O)OCC2CCCCC2)cc1OC` (centres undefined) it was > 40 µM (inactive).
The figure for `COc1ccc2c(c1)c(=O)c(S(=O)(=O)c1ccc(F)cc1)cn2Cc1cccc(F)c1` is > 40 µM (inactive); for `CCOC(=O)N1CCC(NC(=O)c2cc(C(=O)Nc3ccc(S(=O)(=O)N4CCCCC4)cc3)ccc2CO)CC1` it is > 40 µM (inactive).
In the case of `Cn1c(C(=O)NCc2ccccn2)cc2c(=O)[nH]c3ccccc3c21`, the IC50 was > 40 µM (inactive).
The figure for `NS(=O)(=O)c1ccc(CNC(=O)c2ccc(Cl)c(S(=O)(=O)Nc3cc(Cl)ccc3Cl)c2)cc1` is > 40 µM (inactive); for `COc1cccc(-c2cc(C(=O)Nc3cc(C)n(Cc4ccc(Cl)cc4)n3)no2)c1` it is > 40 µM (inactive); for `N#Cc1ccc(NC(=O)Nc2cccn(Cc3ccccc3F)c2=O)cc1` it is > 40 µM (inactive).
Regarding `COc1ccc(S(=O)(=O)NC2CC(=O)N(c3ccc(Cl)cc3)C2)cc1` (centres undefined), the IC50 was > 40 µM (inactive).
In the case of `CCOc1ccc2[nH]c(=O)c(-c3nc4ccc(C)cn4c3NCc3ccccc3)cc2c1` it was > 40 µM (inactive); in that of `O=C(OC1CSc2nc3ccccc3n2C1)c1ccc([N+](=O)[O-])o1` (centres undefined), 21.4 µM; in that of `COc1ccccc1CNC(=O)CCCCn1c(=O)c2ccccc2n(CC(=O)Nc2ccc(C)cc2C)c1=O`, > 40 µM (inactive).
`Cc1nn(-c2ccccc2)c2c1nc(CCC(=O)NC1CCCCC1)c(=O)n2C`: the IC50 is > 40 µM (inactive).
In the case of `Cc1ccc(Nc2nc(NCC(=O)Nc3cc(C)ccc3C)nc(Nc3ccc(C)cc3)n2)cc1` it was > 40 µM (inactive).
Consider `Cc1nc2c(-c3ccc(Cl)cc3)c[nH]n2c(=O)c1Cc1ccccc1`, for which the IC50 is > 40 µM (inactive).
In the case of `COc1cc2c(=O)n(CCC(=O)NC3CCCC3)c(=O)n(CC(=O)Nc3cccc(Cl)c3)c2cc1OC` it was > 40 µM (inactive).
Take `Cc1noc(/C=C/Nc2cc(Cl)cc(Cl)c2)c1[N+](=O)[O-]`: the IC50 was > 40 µM (inactive).
As to `COc1ccccc1-c1nc(-c2cn(-c3ccc(F)cc3)nn2)no1`, the IC50 was 27.8 µM.
With `Cc1ccc(Cn2c(C(=O)O)c(CNCc3ccco3)c3ccccc32)cc1`, the IC50 was > 40 µM (inactive).
`Cn1c(=O)[nH]c(=O)c2c1nc(N1CCc3ccccc3C1)n2CCSc1nnnn1-c1ccccc1`: the IC50 was > 40 µM (inactive).
In the case of `O=C(Cn1c(=O)[nH]c2c(-c3ccccc3)c[nH]c2c1=O)NCc1ccccc1Cl`, the IC50 is > 40 µM (inactive).
In the case of `O=C(Cn1c(=O)n(CCC(=O)N2CCc3ccccc3C2)c(=O)c2ccccc21)NCc1ccccc1Cl`, the IC50 was > 40 µM (inactive).
As for `COc1cccc(NC(=O)C(Sc2cccc(NC(=O)c3ccccc3F)c2)c2ccccc2)c1` (centres undefined), the IC50 was > 40 µM (inactive).
Take `CC(=O)c1ccc(NC(=O)CSc2nc(-c3ccccc3)nc3c2COC(C)(C)C3)cc1`: the IC50 was > 40 µM (inactive).
In the case of `COC(=O)c1ccc(NC(=O)c2ccc(COc3cc(Cl)ccc3Cl)cc2)cc1`, the IC50 is > 40 µM (inactive).
With `Cc1ccc(Cn2c(=O)c3ncccc3n(CC(=O)NCc3ccc(F)cc3)c2=O)cc1`, the IC50 is > 40 µM (inactive).
The figure for `Cc1ccc(Nc2nc(O)c(CC(=O)Nc3ccccc3C)s2)cc1C` is > 40 µM (inactive); for `O=C(Nc1ccc(F)cc1F)c1cc(-c2ccccn2)n[nH]1` it is > 40 µM (inactive); for `COc1ccc(CNC(=O)CN2C(=O)CC(c3ccccc3)=Nc3ccccc32)cc1` it is > 40 µM (inactive).
Take `CC(=O)c1cc(-c2ccc(F)cc2)n(CC(=O)Nc2cccc(C)c2C)c1C`: the IC50 is > 40 µM (inactive).
As to `Cc1ccc(NC(=O)Nc2nnc(CC(=O)NCc3ccccc3)s2)c(Cl)c1`, the IC50 was > 40 µM (inactive).
As for `COc1cc(OC)c(NC(=O)c2cc(-c3ccccn3)n[nH]2)cc1Cl`, the IC50 was > 40 µM (inactive).
On to `Cc1cccc(NC(=O)c2cc(-c3ccc(C)c(C)c3O)n[nH]2)c1`, for which the IC50 is > 40 µM (inactive).
For the compound `CCOc1ccc(S(=O)(=O)Nc2ccc[nH]c2=O)cc1`, the IC50 was > 40 µM (inactive).
Take `COc1ccc(/C=C/C(=O)Nc2ccc3nc(N4CCN(c5ncccn5)CC4)cc(C)c3c2)cc1`: the IC50 was > 40 µM (inactive).
As to `Cc1ccc(NC(=O)CSc2ccc(NC(=O)c3ccc(C(=O)O)cc3C(=O)O)cc2)c(C)c1`, the IC50 is > 40 µM (inactive).
Regarding `Cc1ccccc1NC(=O)N1CCC(CC(=O)N2CCCCC2)CC1`, the IC50 is > 40 µM (inactive).
With `COC(=O)c1ccccc1NC(=O)C1CCCN(c2nnc(-n3cccc3)s2)C1` (centres undefined), the IC50 was > 40 µM (inactive).
Regarding `CCOc1ccc(CCNC(=O)Cn2c(-c3ccc(F)cc3)cc(C(C)=O)c2C)cc1OCC`, the IC50 is > 40 µM (inactive).
The figure for `O=C(CCc1ccc(F)cc1)N1CCOC(CCc2cc(=O)[nH]cn2)C1` (centres undefined) is > 40 µM (inactive); for `CCc1nc(SCC(=O)Nc2ccc(Cl)c(Cl)c2)c2oc3ccccc3c2n1` it is > 40 µM (inactive); for `CC1=C(C)C(N(c2ccccc2)c2ccccc2)N(CCC(C)C)C1=O` (centres undefined) it is 37.7 µM.
For the compound `Cc1cccc(NC(=O)Nc2ccc(C)n(CC(=O)Nc3ccc(C)c(C)c3)c2=O)c1`, the IC50 is > 40 µM (inactive).
Regarding `COc1ccc(Nc2nnc(Cc3ccc(Cl)cc3)c(=O)[nH]2)cc1`, the IC50 was 29.2 µM.
The figure for `O=C(Cn1cc(C(=O)c2ccccc2)c(=O)c2cc(F)ccc21)Nc1ccc2c(c1)OCCO2` is > 40 µM (inactive).
For `COc1ccc(-n2ccn3c(CCC(=O)Nc4cccc(C)c4)nnc3c2=O)cc1`, the IC50 is > 40 µM (inactive).
With `Cc1ccc(Cn2cc(C(=O)Nc3ccccc3C(N)=O)ccc2=O)cc1`, the IC50 was 7.34 µM.
